Data reported in publication PMC8151276, “An Integrated Approach toward NanoBRET Tracers for Analysis of GPCR Ligand Engagement” (Molecules, 2021).
Each block holds one molecule with its values, some of them ahead of it.

Legend:
Format in all cases: binding
[1] = target: T1, CCKAR (Homo sapiens, UniProt P32238); experiment: NanoBRET screen HiBiT-CCKAR in HEK293
T1 construct: purchased Promega (in-house HiBiT-GPCR construct library, NanoBRET)
T1 sequence (P32238 1-428): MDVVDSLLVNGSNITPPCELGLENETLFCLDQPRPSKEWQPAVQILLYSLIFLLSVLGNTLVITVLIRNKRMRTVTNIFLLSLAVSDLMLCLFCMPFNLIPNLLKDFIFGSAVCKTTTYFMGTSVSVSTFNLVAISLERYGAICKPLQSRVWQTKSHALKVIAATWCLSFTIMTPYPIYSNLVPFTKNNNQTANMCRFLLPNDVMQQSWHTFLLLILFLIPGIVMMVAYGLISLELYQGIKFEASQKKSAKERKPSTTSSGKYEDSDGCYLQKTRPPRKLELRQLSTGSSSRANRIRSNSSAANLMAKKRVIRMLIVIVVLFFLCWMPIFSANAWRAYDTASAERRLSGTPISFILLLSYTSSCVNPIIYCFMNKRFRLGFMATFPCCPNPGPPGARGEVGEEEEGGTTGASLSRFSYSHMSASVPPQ
Description: (§1) Each tracer candidate was screened across the entire library of HiBiT-GPCR constructs using NanoBRET as the detection modality. As depicted in Figure 4A, the specificity of interactions was evaluated through decrease in BRET due to competitive displacement of a bound tracer by excess parental compound. Each tracer was analyzed for binding to each HiBiT-GPCR fusion in the absence and in the presence of competing parental compound. Briefly, HEK293 cells were transfected with HiBiT-GPCR constructs diluted into promoterless DNA to reduce expression and maximize translocation to the cell surface. Each tracer candidate was then screened at concentrations of 1 μM and 0.1 μM across cells expressing these fusions. Cells were treated for 1.5 h with tracer either alone or in the presence of 20 μM competing parental compound (i.e., control). BRET was measured upon addition of purified LgBiT and subsequent complementation with HiBiT genetically fused to a GPCR. The specificity of interactions was assessed through a decrease in BRET signal due to competitive displacement of the bound tracer. To further gauge the robustness of these interactions, the fold response over the control (i.e., BRETtracer/BRETcontrol) was calculated. We chose a 1.5-fold response, which translates to ≥7-fold signal over noise as the minimal threshold required to score an interaction as positive. […]. Below we highlight the screening results obtained for our exemplary fluorescent tracers based on Clozapine, Amitriptyline and AZD1283.
(§2) HiBiT-GPCR DNA constructs were diluted in 10 mM Tris pH 8 to a final concentration of 0.01 μg/μL, arrayed in 96-well plates and stored at −20 °C. For transfection, HEK293 cells were suspended in Opti-MEM (without phenol red) supplemented with 2% fetal bovine serum (Seradigm) and 100 units/mL penicillin–streptomycin (Gibco) at a final concentration of 220,000 cells/mL and dispensed into white 96-well plates at 90 μL/well. Subsequent transfections and screens were carried using an Agilent Bravo Automated Liquid Handling Platform. First, the 96-well HiBiT DNA arrays were diluted 25-fold in Opti-MEM (without serum or phenol red) to a final concentration of 0.0004 μg/μL and 20 μL of the diluted DNAs were transferred into new 96-well plates. Next, promoterless carrier DNA (1 μg/μL) was diluted 25-fold (0.04 μg/μL) and then dispensed into the diluted arrays at 20 μL/well. Following brief mixing, Viafect transfection reagent (Promega) diluted 16-fold into Opti-MEM was dispensed into the plates at 40 μL/well. After mixing by pipetting, plates were incubated for 10 min on the pipetting station deck. The DNA-transfection reagent complexes were then added to plates containing cells. To facilitate the screen, 10 μL of DNA-transfection reagent complexes were added in duplicates to the top 4 and bottom 4 rows, resulting in two identical 48-well arrays per plate. Plates with transfected cells were incubated for 18–20 h at 37 °C/5% CO2. A screen of each tracer across the entire library using two different concentrations requires duplicate plates of transfected cells. Depending on the number of tracers being screened, transfections can be scaled up using the same ratios. The next day, for each tracer, four 20× screening solutions in tracer dilution buffer (Promega) were prepared: two duplicates at final concentration of 20 μM and two duplicates at a final concentration of 2 μM. A competing unmodified compound was added to one of each duplicate at a final concentration of 400 μM. The four resulting solutions were diluted 4-fold in Opti-MEM without serum or phenol red to generate 5× solutions (5 µM and 0.5 µM tracer +/− 100 μM competing compound). To screen the library, a BioTek MultiFlo FX liquid dispenser was used to dispense 22.5 µL of tracer solution to the top 4 rows and 22.5 µL tracer + competing compound solution to the 4 bottom rows. Plates were briefly mixed on an orbital shaker and incubated for 1.5 h at room temperature. […]

[2] = target: T2, PTGFR (Homo sapiens, UniProt P43088); experiment: NanoBRET screen HiBiT-PTGFR in HEK293
T2 construct: purchased Promega (in-house HiBiT-GPCR construct library, NanoBRET)
Description: as §1, §2

[3] = target: T3, NPY2R (Homo sapiens, UniProt P49146); experiment: NanoBRET screen HiBiT-NPY2R in HEK293
T3 construct: purchased Promega (in-house HiBiT-GPCR construct library, NanoBRET)
T3 sequence (P49146 1-381): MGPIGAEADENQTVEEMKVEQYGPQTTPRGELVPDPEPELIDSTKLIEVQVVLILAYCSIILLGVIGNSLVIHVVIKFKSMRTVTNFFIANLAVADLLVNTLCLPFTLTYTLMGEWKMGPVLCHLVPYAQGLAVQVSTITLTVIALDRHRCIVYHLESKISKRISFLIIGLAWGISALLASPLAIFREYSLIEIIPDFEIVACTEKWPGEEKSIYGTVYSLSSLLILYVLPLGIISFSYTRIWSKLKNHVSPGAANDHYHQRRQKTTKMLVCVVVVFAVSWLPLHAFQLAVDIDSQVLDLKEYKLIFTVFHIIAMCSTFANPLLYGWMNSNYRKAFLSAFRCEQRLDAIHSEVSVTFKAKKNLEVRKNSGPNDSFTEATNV
Description: as §1, §2

[4] = target: T4, LTB4R (Homo sapiens, UniProt Q15722); experiment: NanoBRET screen HiBiT-LTB4R in HEK293
T4 construct: purchased Promega (in-house HiBiT-GPCR construct library, NanoBRET)
Description: as §1, §2

[5] = tracer at 0.1μM, listed as amitriptyline-b-2-NB590
[6] = tracer at 1μM, listed as amitriptyline-b-2-NB590

T4 sequence (Q15722 whole entry): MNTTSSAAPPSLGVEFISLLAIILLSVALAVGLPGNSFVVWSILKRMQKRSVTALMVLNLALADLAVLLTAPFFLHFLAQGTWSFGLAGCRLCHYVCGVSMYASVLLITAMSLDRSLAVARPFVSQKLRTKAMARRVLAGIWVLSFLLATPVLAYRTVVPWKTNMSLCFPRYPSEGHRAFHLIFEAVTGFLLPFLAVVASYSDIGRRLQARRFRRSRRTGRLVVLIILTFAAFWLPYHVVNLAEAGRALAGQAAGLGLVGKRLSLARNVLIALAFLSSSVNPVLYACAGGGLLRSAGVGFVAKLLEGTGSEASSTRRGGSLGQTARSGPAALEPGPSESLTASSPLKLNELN
T2 sequence (P43088 whole entry): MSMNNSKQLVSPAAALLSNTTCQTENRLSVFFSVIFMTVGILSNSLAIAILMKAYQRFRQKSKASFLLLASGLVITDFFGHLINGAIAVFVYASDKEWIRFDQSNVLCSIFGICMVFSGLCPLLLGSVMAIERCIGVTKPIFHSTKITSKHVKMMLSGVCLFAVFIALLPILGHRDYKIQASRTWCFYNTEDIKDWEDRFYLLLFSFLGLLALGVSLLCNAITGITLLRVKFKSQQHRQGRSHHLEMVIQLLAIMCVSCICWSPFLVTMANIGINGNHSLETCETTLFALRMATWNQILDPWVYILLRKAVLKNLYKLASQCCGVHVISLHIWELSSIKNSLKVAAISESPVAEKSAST

- NanoBRET Fold Response ([1]; CCKAR, 0.1μM): 1.08
- NanoBRET Fold Response ([1]; CCKAR, 1μM): 1.11
- NanoBRET Fold Response ([2]; PTGFR, 0.1μM): 1.02
- NanoBRET Fold Response ([2]; PTGFR, 1μM): 1.02
- NanoBRET Fold Response ([3]; NPY2R, 0.1μM): 1.04
- NanoBRET Fold Response ([3]; NPY2R, 1μM): 1.07
- NanoBRET Fold Response ([4]; LTB4R, 0.1μM): 1.16
- NanoBRET Fold Response ([4]; LTB4R, 1μM): 1.16
Structure (SMILES): CCOC(=O)c1cc(C#N)c(N2CCC(C(=O)NS(=O)(=O)Cc3ccccc3/C=C/C(=O)NCCNC(=O)CCc3ccc4n3[B-](F)(F)[N+]3=C(c5ccc[nH]5)C=CC3=C4)CC2)nc1C [AZD1283-1-NB590]

- NanoBRET Fold Response ([1]; CCKAR, tracer 0.1μM): 0.98
- NanoBRET Fold Response ([1]; CCKAR, tracer 1μM): 1.04
- NanoBRET Fold Response ([2]; PTGFR, tracer 0.1μM): 0.99
- NanoBRET Fold Response ([2]; PTGFR, tracer 1μM): 0.93
- NanoBRET Fold Response ([3]; NPY2R, tracer 0.1μM): 0.98
- NanoBRET Fold Response ([3]; NPY2R, tracer 1μM): 1.00
- NanoBRET Fold Response ([4]; LTB4R, tracer 0.1μM): 1.03
- NanoBRET Fold Response ([4]; LTB4R, tracer 1μM): 0.99
Structure (SMILES): N#CN=C(NCCCOc1cccc(CN2CCCCC2)c1)NCCNC(=O)CCOCCOCCOCCOCCNC(=O)CCc1ccc2n1[B-](F)(F)[N+]1=C(c3ccc[nH]3)C=CC1=C2 [Aminopotentidine-2-NB590]

Structure (SMILES): CN(C)CCC=C1c2ccccc2CCc2ccc(C(=O)NCCNC(=O)CCOCCOCCOCCOCCNC(=O)CCc3ccc4n3[B-](F)(F)[N+]3=C(c5ccc[nH]5)C=CC3=C4)cc21 [Amitriptyline-a-2-NB590]
- NanoBRET Fold Response ([1]; tracer at 0.1μM): 1.03
- NanoBRET Fold Response ([1]; tracer at 1μM): 1.00
- NanoBRET Fold Response ([3]; tracer at 0.1μM): 0.99
- NanoBRET Fold Response ([3]; tracer at 1μM): 0.98
- NanoBRET Fold Response ([4]; tracer at 0.1μM): 1.02
- NanoBRET Fold Response ([4]; tracer at 1μM): 1.00

Structure (SMILES): CN(C)CCC=C1c2ccccc2CCc2ccc(C(=O)NCCNC(=O)CCOCCOCCOCCOCCNC(=O)CCc3ccc4n3[B-](F)(F)[N+]3=C(c5ccc[nH]5)C=CC3=C4)cc21 [Amitriptyline-b-2-NB590]
- NanoBRET Fold Response [1, 5]: 1.11
- NanoBRET Fold Response [1, 6]: 0.98
- NanoBRET Fold Response ([2]; tracer at 0.1μM): 1.01
- NanoBRET Fold Response ([2]; tracer at 1μM): 1.00
- NanoBRET Fold Response [3, 5]: 1.09
- NanoBRET Fold Response [3, 6]: 0.88
- NanoBRET Fold Response [4, 6]: 1.02

Structure (SMILES): CN(CCC=C1c2ccccc2CCc2ccccc21)C(=O)CCOCCOCCOCCOCCNC(=O)CCc1ccc2n1[B-](F)(F)[N+]1=C(c3ccc[nH]3)C=CC1=C2 [Amitriptyline-e-2-NB590]
- NanoBRET Fold Response ([1]; tracer at 1μM): 1.00
- NanoBRET Fold Response ([4]; tracer at 1μM): 1.03

- NanoBRET Fold Response ([1]; 0.1μM tracer): 1.21
- NanoBRET Fold Response ([1]; 1μM tracer): 0.96
- NanoBRET Fold Response ([2]; 0.1μM tracer): 1.13
- NanoBRET Fold Response ([2]; 1μM tracer): 0.90
- NanoBRET Fold Response ([3]; 0.1μM tracer): 1.19
- NanoBRET Fold Response ([3]; 1μM tracer): 0.85
- NanoBRET Fold Response ([4]; 0.1μM tracer): 0.97
- NanoBRET Fold Response ([4]; 1μM tracer): 0.97
Structure (SMILES): COc1ccc2c(n1)c(CCNC(C)=O)cn2CCNC(=O)CCc1ccc2n1[B-](F)(F)[N+]1=C(c3ccc[nH]3)C=CC1=C2 [Azamelatonin-1-NB590]
